Source: ChEMBL document CHEMBL1129257, “Potent inhibition of tumor necrosis factor-alpha production by tetrafluorothalidomide and tetrafluorophthalimides” (J Med Chem, 1996)
pIC50: −log10 of the molar value.

Key:
Assay type in all cases: functional
Tumor necrosis factor [1] = molecular target: T1, Tumor necrosis factor (Homo sapiens, UniProt P01375); experiment: Inhibition of TNF-alpha production from human monocytes upon stimulation with bacterial lipopolysaccharide (LPS) at a concentration of 1 uM; conditions: values are per cent of control
Tumor necrosis factor [2] = molecular target: T1, Tumor necrosis factor; experiment: Inhibition of TNF-alpha production from human monocytes upon stimulation with bacterial lipopolysaccharide (LPS) at a concentration of 100 nM,
Tumor necrosis factor [3] = molecular target: T1, Tumor necrosis factor; experiment: Inhibition of TNF-alpha production from human monocytes upon stimulation with bacterial lipopolysaccharide (LPS) at a concentration of 215 nM,
Tumor necrosis factor [4] = molecular target: T1, Tumor necrosis factor; experiment: Inhibition of TNF-alpha production from human monocytes upon stimulation with bacterial lipopolysaccharide (LPS) at a concentration of 464 nM,
Tumor necrosis factor [5] = molecular target: T1, Tumor necrosis factor; experiment: Inhibition of TNF-alpha production from human monocytes upon stimulation with bacterial lipopolysaccharide (LPS) at a concentration of 100 nM; conditions: values are per cent of control
Tumor necrosis factor [6] = molecular target: T1, Tumor necrosis factor; experiment: Inhibition of TNF-alpha production from human monocytes upon stimulation with bacterial lipopolysaccharide (LPS) at a concentration of 215 nM; conditions: values are per cent of control
Tumor necrosis factor [7] = molecular target: T1, Tumor necrosis factor; experiment: Inhibition of TNF-alpha production from human monocytes upon stimulation with bacterial lipopolysaccharide (LPS) at a concentration of 464 nM; conditions: values are per cent of control
Tumor necrosis factor [8] = molecular target: T1, Tumor necrosis factor; experiment: Inhibition of TNF-alpha production from human monocytes upon stimulation with bacterial lipopolysaccharide (LPS) at a concentration of 100 uM,
Tumor necrosis factor [9] = molecular target: T1, Tumor necrosis factor; experiment: Inhibition of TNF-alpha production from human monocytes upon stimulation with bacterial lipopolysaccharide (LPS) at a concentration of 215 uM,
Tumor necrosis factor [10] = molecular target: T1, Tumor necrosis factor; experiment: Inhibition of TNF-alpha production from human monocytes upon stimulation with bacterial lipopolysaccharide (LPS) at a concentration of 464 uM
Tumor necrosis factor [11] = molecular target: T1, Tumor necrosis factor; experiment: Inhibition of TNF-alpha production from human monocytes upon stimulation with bacterial lipopolysaccharide (LPS) at a concentration of 200 uM
Tumor necrosis factor [12] = molecular target: T1, Tumor necrosis factor; experiment: Inhibitory activity against TNF-alpha production

T1 sequence (P01375 whole entry): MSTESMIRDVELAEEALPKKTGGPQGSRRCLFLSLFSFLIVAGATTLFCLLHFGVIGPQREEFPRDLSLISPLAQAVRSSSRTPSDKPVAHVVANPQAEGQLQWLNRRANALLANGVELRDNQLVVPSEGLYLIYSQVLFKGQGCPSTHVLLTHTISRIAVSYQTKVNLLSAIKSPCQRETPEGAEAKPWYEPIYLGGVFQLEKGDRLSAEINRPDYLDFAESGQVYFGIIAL

Row | Compound | response, % of control (Tumor necrosis factor [1]) [%] | response, % of control (Tumor necrosis factor [5]) [%] | response, % of control (Tumor necrosis factor [6]) [%] | response, % of control (Tumor necrosis factor [7]) [%] | other results
1 | CCc1cccc(CC)c1N1C(=O)c2c(F)c(F)c(F)c(F)c2C1=O | -1 |  |  |  | inhibition (Tumor necrosis factor [2]): 43%; inhibition (Tumor necrosis factor [3]): 20%; inhibition (Tumor necrosis factor [4]): 2%
2 | O=C1CCC(N2C(=O)c3c(Cl)c(Cl)c(Cl)c(Cl)c3C2=O)C(=O)N1 (racemic) | 75 | 80 | 90 | 80 | 
3 | CC(C)c1cccc(C(C)C)c1N1C(=O)c2c(Br)c(Br)c(Br)c(Br)c2C1=O | 62 | 80 | 70 | 53 | 
4 | Cc1cccc(C)c1N1C(=O)c2c(F)c(F)c(F)c(F)c2C1=O | 3 | 62 | 50 | 30 | 
5 | CC(C)c1cccc(C(C)C)c1N1C(=O)c2c(Cl)c(Cl)c(Cl)c(Cl)c2C1=O | 70 | 75 | 80 | 70 | 
6 | COC(=O)CC(c1ccc(OC)c(OC)c1)N1C(=O)c2c(F)c(F)c(F)c(F)c2C1=O (racemic) | -5 |  |  |  | inhibition (Tumor necrosis factor [8]): 55%; inhibition (Tumor necrosis factor [9]): 30%; inhibition (Tumor necrosis factor [10]): 10%
7 | CC(C)c1cccc(C(C)C)c1N1C(=O)c2c(F)c(F)c(F)c(F)c2C1=O | 5 | 40 | 10 | 2 | 
8 | O=C1CCC(N2C(=O)c3ccccc3C2=O)C(=O)N1 (stereo unspecified) |  |  |  |  | inhibition (Tumor necrosis factor [11]): 64%
9 | CC(C)(C)c1cccc(C(C)(C)C)c1N1C(=O)c2c(F)c(F)c(F)c(F)c2C1=O | -2 | 40 | 30 | 15 | 
10 | O=C1CCC(N2C(=O)c3c(F)c(F)c(F)c(F)c3C2=O)C(=O)N1 (racemic) | 4 | 85 | 70 | 40 | pIC50 (Tumor necrosis factor [12]): 6.40
11 | O=C1CCC(N2C(=O)c3c(Br)c(Br)c(Br)c(Br)c3C2=O)C(=O)N1 (racemic) | 53 | 70 | 60 | 62 | 
12 | O=C1c2c(F)c(F)c(F)c(F)c2C(=O)N1c1ccccc1 | 65 | 65 | 65 | 70 | 
